Article PMC5984089, “FBXW7 regulates DISC1 stability via the ubiquitin-proteosome system” (Molecular Psychiatry, 2017)
Residues, ends and D or L forms follow the SMILES beside them. *: point of attachment. Cbz = O=C(OCc1ccccc1)*

Legend:
[1] = test system: DISC1, neural progenitors derived from patients carrying a 4-bp deletion in the DISC1 gene; experiment: DISC1 protein level in patient iPS-derived neural progenitors (DISC1 frameshift, 4-bp deletion), western blot; format: cell-based, human
Text: (§1) All iPS derived neural progenitors were provided by Pfizer Neuroscience (Cambridge, MA, USA). The iPS cell lines D2 and D3 and family control cell line C1 were generated using a non-integrated approach by Dr Hongjun Song at Johns Hopkins University and cultured as described previously.[8] The Detroit iPS cell line was generated by Dr S. Engle at Pfizer Neuroscience. Detroit 551 fibroblasts were obtained from ATCC (CCL-110) and maintained in Knockout DMEM (Life Technologies 10829-018), 15% FBS (Life Technologies), 1x Non-essential amino acids (Life Technologies 11140-050), 2 mM L-glutamine (Life Technologies 25030-081), 1x Gentamicin (Life Technologies 15710-072), 0.1 mM β-mercaptoethanol (Sigma M-7522). The cells were reprogrammed with individual lentiviruses expressing c-MYC, KLF4, SOX2, OCT3/4, NANOG, and LIN28. One colony, Detroit 551-3, with ES-like morphology, high expression of pluripotency markers (for example, OCT3/4, TRA-1-60, TRA-1-81, SSEA4), a normal karyotype, […] the ability to form all three germ layers in a teratoma assay was used in all subsequent experiments. […]

[2] = test system: DISC1, neural progenitors derived from control subjects; experiment: DISC1 protein level in control iPS-derived neural progenitors, western blot; format: cell-based, human; settings: MG132 10 µM, day 18, up to 3 hours, n=2, western blot
Text: as §1

CC(C)C[C@@H](C=O)NC(=O)[C@H](CC(C)C)NC(=O)[C@H](CC(C)C)NC(=O)OCc1ccccc1 [MG132] (Cbz-Leu-Leu-Leu-aldehyde)
DISC1 protein level in NPs from D2-1 (patient) iPS cells, proteasomal inhibition ([1]; MG132 10 µM, day 18, up to 3 hours, n=2, western blot): stabilization of DISC1 protein levels within first 30 min up to 3 hours | DISC1 level in patient-derived NP cells after MG132 ([1]; MG132, Supplementary Figure 10D): could be enhanced by MG132 treatment | DISC1 protein level in NPs from Detroit (control) iPS cells, proteasomal inhibition [2]: stabilization of DISC1 protein levels within first 30 min up to 3 hours
